Here are results for two compounds from PubChem BioAssay (NCI).

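Assay format: 96-well plates, 48-hour exposure. Abbreviation: GI50, concentration required for 50% inhibition of growth. Definition used: TGI = concentration required for complete inhibition of growth.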

Some test systems named below: ACHN renal; CAKI-1 renal; CCRF-CEM leukemia; DU-145 prostate; HS 578T breast; MDA-MB-231 breast; NCI-H226 lung; OVCAR-5 ovarian; SF-539 CNS; T-47D breast; UACC-62 melanoma; HCT-116 colon; K-562 leukemia; MOLT-4 leukemia; U251 CNS.
Common to all, as to experiment: NCI-60 cell line screen, 48 h

In the case of `C[C@@H](Nc1nc(Nc2ccc(F)c(Cl)c2)nc2c(C3=CCNCC3)cccc12)C1CC1`, the GI50 is 1.81 µM in the experiment on ACHN renal; 1.58 µM with CAKI-1 renal; 2.21 µM in the experiment with CCRF-CEM leukemia; 1.64 µM in the experiment with DU-145 prostate; 1.99 µM with HS 578T breast; 1.72 µM with MDA-MB-231 breast. Further, the GI50 with NCI-H226 lung is 2.31 µM; with OVCAR-5 ovarian it was 1.53 µM; in the experiment on SF-539 CNS it was 1.68 µM; in the experiment on T-47D breast, 1.91 µM; in the experiment with UACC-62 melanoma, 1.82 µM. In addition, the TGI in the experiment with ACHN renal was determined as 3.32 µM; in the experiment on CAKI-1 renal, 2.99 µM; in the experiment with CCRF-CEM leukemia it was 5.54 µM; with DU-145 prostate, 3.04 µM; in the experiment with HS 578T breast, 4.82 µM; with MDA-MB-231 breast, 3.28 µM. Further, the TGI with NCI-H226 lung is 5.03 µM; in the experiment on OVCAR-5 ovarian it was 3.25 µM; in the experiment with SF-539 CNS, 3.17 µM; with T-47D breast, 4.38 µM; in the experiment on UACC-62 melanoma, 3.36 µM.
As to `Cc1ccc(C2CC3(c4ccccc4)ON=C(c4ccccc4)N3c3ccccc3S2)cc1` (stereo unspecified), the GI50 with HCT-116 colon is 8.08 µM; in the experiment with K-562 leukemia, 38.5 µM; in the experiment on MOLT-4 leukemia it was 38.9 µM; in the experiment with U251 CNS, 20.6 µM.
